According to EP1149096B1, “TRICYCLIC PYRIDINE N-OXIDES VASOPRESSIN AGONISTS” (Wyeth, priority 1999, dated 2000):

Test system: Vasopressin V2
Test: Vasopressin V2 agonist effects in normal conscious water-loaded rats
Type: in vivo
Details: oral dose of 10 mg/kg, urine collected for four hours after dosing, Sprague-Dawley (CD) rats, water-loaded 30 ml/kg; for Changes in Urinary Osmolality: Percent changes in osmolality vs. control; for Urine Volume (% decrease): Percent decrease in urine volume vs. control
Description: Vasopressin V2 Agonist Effects of Test Compounds in Normal Conscious Water-Loaded Rats:
Male or female normotensive Sprague-Dawley rats (Charles River Laboratories, Inc., Kingston, NY) of 350-500 g body weight were supplied with standard rodent diet (Purina Rodent Lab. Chow 5001) and water ad libitum. On the day of test, rats were placed individually into metabolic cages equipped with devices to separate the feces from the urine and containers for collection of urine. A test compound or a reference agent was given at an oral dose of 10 mg/kg in a volume of 10 ml/kg. The vehicle used was 20% dimethylsulfoxide (DMSO) in 2.5% preboiled corn starch. Thirty minutes after dosing the test compound, rats were gavaged with water at 30 ml/kg into the stomach using a feeding needle. During the test, rats were not provided with water or food. Urine was collected for four hours after dosing of the test compound. At the end of four hours, urine volume was measured. Urinary osmolality was determined using a Fiske One-Ten Osmometer (Fiske Associates, Norwood, MA, 02062) or an Advanced CRYOMATIC Osmometer, Model 3C2 (Advanced Instruments, Norwood, MA). Determinations of Na^+, K^+ and Cl^- ion were carried out using ion specific electrodes in a Beckman SYNCHRON EL-ISE Electrolyte System analyzer. The urinary osmolality should increase proportionally. In the screening test, two rats were used for each compound. If the difference in the urine volume of the two rats was greater than 50%, a third rat was used.

SMILES: Cc1ccn(-c2ccc(C(=O)N3Cc4ccc[n+]([O-])c4Nc4ccccc43)c(Br)c2)n1 [Example 3, [2-Bromo-4-(3-methyl-1H-pyrazol-1-yl)-phenyl]-(6,11-dihydro-5H-pyrido [2,3-b][1,5]benzodiazepin-6-yl)-methanone-1-oxide]
- Changes in Urinary Osmolality: 747%
- Urine Volume (% decrease): 90%

SMILES: Cc1ccn(-c2ccc(C(=O)N3Cc4ccc[n+]([O-])c4Nc4ccccc43)c(C(F)(F)F)c2)n1 [Example 4, 4-[(3-Methyl-1H-pyrazol-1-yl)-2-(trifluoromethyl)-phenyl]-(6,11-dihydro-5H-pyrido[2,3-b][1,5]benzodiazepin-6-yl)-methanone 1-oxide]
- Changes in Urinary Osmolality: 331%
- Urine Volume (% decrease): 72%

SMILES: Cc1ccn(-c2ccc(C(=O)N3Cc4ccc[n+]([O-])c4Nc4ccccc43)c(Cl)c2)n1 [Example 1, [2-Chloro-4-(3-methyl-1H-pyrazol-1-yl)-phenyl]-(6,11-dihydro-5H-pyrido[2,3-b][1,5]benzodiazepin-6-yl)-methanone-1-oxide]
- Changes in Urinary Osmolality: 753%
- Urine Volume (% decrease): 80%
